Data taken from patent US12371454B2, “Cyclic peptide compound having Kras inhibitory action” (priority 2019, dated 2025).
pIC50: −log10 of the molar value. Starred links: 1 amine or outer side, 2 acyl side, 3 side chain; linkers in the order of their positions; H or OH if unused. Positions of bridges follow the written chain, without caps; N, C: chain ends. Non-standard residues stand in square brackets, D forms with d. Residues, ends and D or L forms follow the SMILES beside them. *: point of attachment. hPhe(3,5-F2-4-CF3) = N[C@@H](CCc1cc(F)c(C(F)(F)F)c(F)c1)C(=O)O; hPhe(3-Cl-4-CF3) = N[C@@H](CCc1ccc(C(F)(F)F)c(Cl)c1)C(=O)O; hPhe(3-F,4-CF3) = N[C@@H](CCc1ccc(C(F)(F)F)c(F)c1)C(=O)O; NMePhe(4-CF3) = CN[C@@H](Cc1ccc(C(F)(F)F)cc1)C(=O)O; hPhe(4-CF3) = N[C@@H](CCc1ccc(C(F)(F)F)cc1)C(=O)O; NMeAla(4-thiazolyl) = CN[C@@H](Cc1cscn1)C(=O)O; NMePhe(4-Cl) = CN[C@@H](Cc1ccc(Cl)cc1)C(=O)O; NMePhe(4-Me) = CN[C@@H](Cc1ccc(C)cc1)C(=O)O; hPhe(4-Cl) = N[C@@H](CCc1ccc(Cl)cc1)C(=O)O; NMedβ3hAla = C[C@H](CC(=O)[*:2])N(C)[*:1]; NMeGly(cPent) = CN[C@H](C(=O)O)C1CCCC1; Pro(4,4-F2) = O=C(O)[C@@H]1CC(F)(F)CN1; NMeCha = CN[C@@H](CC1CCCCC1)C(=O)O; NMeGly(cPr) = CN[C@H](C(=O)O)C1CC1; NMeF = CN[C@@H](Cc1ccccc1)C(=O)O; NMeI = CC[C@H](C)[C@H](NC)C(=O)O; NMeD = CN[C@@H](CC(=O)O)C(=O)O; NMeL = CN[C@@H](CC(C)C)C(=O)O; NMeV = CN[C@H](C(=O)O)C(C)C; d(β3hA) = C[C@@H](N)CC(=O)O; NMeS = CN[C@@H](CO)C(=O)O; Pip = O=C(O)[C@@H]1CCCCN1; NMeA = CN[C@@H](C)C(=O)O; Piperidide = C1CCN(*)CC1; Ac5c = NC1(C(=O)O)CCCC1; Aze = O=C(O)[C@@H]1CCN1; Sar = CNCC(=O)O

Molecular target: T1, Kras and SOS1 (biotin-tagged human Kras loaded with GDP, His-tagged human SOS1) (Homo sapiens, UniProt P01116, G12D)
T1 construct: made in house; host or cells: E. coli (stated for Kras only)
T1 sequence (P01116 1-188 isoform P01116-2 G12D): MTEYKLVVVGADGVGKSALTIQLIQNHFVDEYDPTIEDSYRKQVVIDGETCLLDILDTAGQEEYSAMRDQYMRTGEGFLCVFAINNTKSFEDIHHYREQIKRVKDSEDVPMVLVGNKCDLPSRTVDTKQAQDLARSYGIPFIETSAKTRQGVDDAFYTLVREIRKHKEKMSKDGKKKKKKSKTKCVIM
Assay: Protein-protein interaction inhibition between Kras and SOS1 (KrasGl2D-SOS PPI) using AlphaScreen
Format: binding
Conditions: AlphaScreen; biotin-tagged human Kras loaded with GDP, His-tagged human SOS1; read-out: KRAS G12D-SOS PPI IC50
In short: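 Binding between SOS1 and Kras is detected as bead-proximity luminescence: illuminate Ni-conjugated donors (680 nm), collect 520-620 nm emission from streptavidin-conjugated acceptors; Kras carries biotin and GDP loaded after purification, SOS1 carries a His tag.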

Row | SMILES | pIC50
1 | CC[C@H](C)[C@@H]1NC(=O)[C@@H]2CCCCN2C(=O)C[C@@H](C(=O)N2CCCCC2)N(C)C(=O)[C@H](C(C)C)N(C)C(=O)C2(CCCC2)NC(=O)[C@@H]2CCCN2C(=O)[C@H](CCc2ccc(Cl)cc2)NC(=O)CN(C)C(=O)[C@H](CC2CCCCC2)N(C)C(=O)CN(C)C(=O)CN(C)C1=O [Compound 841] ([Pip]I[Sar][Sar][NMeCha][Sar][hPhe(4-Cl)]P[Ac5c][NMeV][NMeD]-Piperidide; lactam N-11) | 7.62
2 | CC[C@H](C)[C@@H]1NC(=O)[C@H](C2CC2)N(C)C(=O)C[C@@H](C)NC(=O)[C@H](C(C)C)N(C)C(=O)C2(CCCC2)NC(=O)[C@@H]2CCCN2C(=O)[C@H](CCc2ccc(C(F)(F)F)c(Cl)c2)NC(=O)CN(C)C(=O)[C@H](CC2CCCCC2)N(C)C(=O)CN(C)C(=O)CN(C)C1=O [Compound 844] (cyclo([Ac5c][NMeV][d(β3hA)][NMeGly(cPr)]I[Sar][Sar][NMeCha][Sar][hPhe(3-Cl-4-CF3)]P)) | 7.55
3 | CC[C@H](C)[C@@H]1NC(=O)[C@@H]2CCCCN2C(=O)C[C@@H](C)NC(=O)[C@H](CC(C)C)N(C)C(=O)C2(CCCC2)NC(=O)[C@H](CC(C)C)N(C)C(=O)[C@H](CCc2ccc(C(F)(F)F)cc2)NC(=O)CN(C)C(=O)[C@H](Cc2ccc(Cl)cc2)N(C)C(=O)CN(C)C(=O)CN(C)C1=O [Compound 847] (cyclo([Ac5c][NMeL][d(β3hA)][Pip]I[Sar][Sar][NMePhe(4-Cl)][Sar][hPhe(4-CF3)][NMeL])) | 7.27
4 | CC[C@H](C)[C@@H]1NC(=O)[C@H](CC(C)C)N(C)C(=O)C[C@@H](C(=O)N2CCCCC2)N(C)C(=O)[C@H](COC)N(C)C(=O)C2(CCCC2)NC(=O)[C@@H]2CCCN2C(=O)[C@H](CCc2ccc(C(F)(F)F)c(Cl)c2)NC(=O)CN(C)C(=O)[C@H](CC2CCCCC2)N(C)C(=O)CN(C)C(=O)CN(C)C1=O [Compound 850] ([NMeL]I[Sar][Sar][NMeCha][Sar][hPhe(3-Cl-4-CF3)]P[Ac5c][NMeS](Me)[NMeD]-Piperidide; lactam N-11) | 7.62
5 | CC[C@H](C)[C@@H]1NC(=O)[C@H](C(C)C)N(C)C(=O)C[C@@H](C)NC(=O)[C@H](CC(C)C)N(C)C(=O)C2(CCCC2)NC(=O)[C@H](CC(C)C)N(C)C(=O)[C@H](CCc2ccc(C(F)(F)F)c(F)c2)NC(=O)CN(C)C(=O)[C@H](Cc2ccc(Cl)cc2)N(C)C(=O)CN(C)C(=O)CN(C)C1=O [Compound 851] (cyclo([Ac5c][NMeL][d(β3hA)][NMeV]I[Sar][Sar][NMePhe(4-Cl)][Sar][hPhe(3-F,4-CF3)][NMeL])) | 7.57
6 | CC[C@H](C)[C@@H]1NC(=O)[C@H](CC(C)C)N(C)C(=O)C[C@@H](C(=O)N(C)C)N(C)C(=O)[C@H]([C@@H](C)CC)N(C)C(=O)[C@H](C)NC(=O)[C@H](Cc2cscn2)N(C)C(=O)[C@H](CCc2ccc(C(F)(F)F)c(Cl)c2)NC(=O)CN(C)C(=O)[C@H](Cc2ccc(C)cc2)N(C)C(=O)[C@@H]2CCN2C(=O)[C@H](C)N(C)C1=O [Compound 856] ([NMeL]I[NMeA][Aze][NMePhe(4-Me)][Sar][hPhe(3-Cl-4-CF3)][NMeAla(4-thiazolyl)]A[NMeI][NMeD]-NMe2; lactam N-11) | 7.85
7 | CC[C@H](C)[C@@H]1NC(=O)[C@H](C2CCCC2)N(C)C(=O)C[C@@H](C)NC(=O)[C@H](C(C)C)N(C)C(=O)C2(CCCC2)NC(=O)[C@@H]2CCCN2C(=O)[C@H](CCc2ccc(C(F)(F)F)c(Cl)c2)NC(=O)CN(C)C(=O)[C@H](CC2CCCCC2)N(C)C(=O)CN(C)C(=O)CN(C)C1=O [Compound 857] (cyclo([Ac5c][NMeV][d(β3hA)][NMeGly(cPent)]I[Sar][Sar][NMeCha][Sar][hPhe(3-Cl-4-CF3)]P)) | 7.77
8 | CC[C@H](C)[C@@H]1NC(=O)[C@H](C)N(C)C(=O)C[C@@H](C(=O)N2CCCCC2)NC(=O)[C@H](CC(C)C)N(C)C(=O)[C@H](Cc2ccccc2)N(C)C(=O)[C@H](CC(C)C)NC(=O)[C@H](CCc2ccc(C(F)(F)F)c(Cl)c2)NC(=O)CN(C)C(=O)[C@H](Cc2ccc(Cl)cc2)N(C)C(=O)CN(C)C(=O)CN(C)C1=O [Compound 861] ([NMeA]I[Sar][Sar][NMePhe(4-Cl)][Sar][hPhe(3-Cl-4-CF3)]L[NMeF][NMeL]D-Piperidide; lactam N-11) | 8.35
9 | CC[C@H](C)[C@@H]1NC(=O)[C@H](CC(C)C)N(C)C(=O)C[C@@H](C)N(C)C(=O)[C@H]([C@@H](C)CC)N(C)C(=O)C2(CCCC2)NC(=O)[C@@H]2CC(F)(F)CN2C(=O)[C@H](CCc2cc(F)c(C(F)(F)F)c(F)c2)NC(=O)CN(C)C(=O)[C@H](Cc2ccc(C(F)(F)F)cc2)N(C)C(=O)[C@@H]2CCN2C(=O)[C@H](C)N(C)C1=O [Compound 863] (cyclo([Ac5c][NMeI][NMedβ3hAla][NMeL]I[NMeA][Aze][NMePhe(4-CF3)][Sar][hPhe(3,5-F2-4-CF3)][Pro(4,4-F2)])) | 8.60
